Consider 1 molecule from patent US6200962A, “Thionophosphate derivatives, process for their preparation and pharmaceutical compositions containing them” (priority 1994, dated 2001).

The nature of series [1]: oil(mineral)/water and octanol/water partitioning. Type of series: physicochemical. The text has this:
The basic chemical structure of the compounds of the invention includes the group --P--N=S, which resembles the thiourea --N--C=S core, in which the central carbon atom has been replaced by a phosphorus atom, to give --N--P=S, which is the characteristic functional group the novel compounds of the invention. This functional group is based on a primary amido thionophosphate (AMTP) chemical bond. The specific compounds shown in FIG. 1, which are only representative of the numerous possible compounds, differ in their oil(mineral) /water and octanol/water partitioning: […]

A short description of series [2]: Scavenging of sodium hypochlorite followed by 31P NMR. The following applies: 5 mM in water, 6 mM NaOCl, immediately after exposure. The method, then: (§1) ROS reaction with AMTP were recorded by ^31 P NMR spectra. ^31 P spectra were referenced to 1% H3 PO4 in D2 O and used as an external standard.
Compound B (5 mM in water) was introduced into 6 mM sodium hypochlorite.

A short description of series [3]: Reaction with hydrogen peroxide followed by 31P NMR. On the procedure: as §1
Two products of oxidation were observed by ^31 P NMR (FIG. 4). One product at 9.106 ppm and the other at -3.556 ppm. The second product indicated another fragmentation in the molecule.
Different reaction rates were recorded by NMR kinetics between hydrogen peroxide and compound B either in a more hydrophilic environment and in a more hydrophobic one (different mixtures of 1,4-dioxane and water) with dielectric constants of 72.63 and 9.58 respectively.

The nature of series [4]: Superoxide radical assay (xanthine/xanthine oxidase, cyt C reduction). On the procedure: Superoxide radicals were produced from reactions of xanthine/xanthine oxidase [Mccord, J. M. and Fridovich I. (1969) J. Biol. Chem. 244:6049-6055]. The enzyme unit was adjusted to produce a linear flux of superoxide radicals which gave a slope of 0.12 OD/min at 550 nm. by reduction of cyt-C.
Superoxide radicals were produced by the xanthine/xanthine oxidase system, and the prevention of cyt C reduction by compound B was measured (FIG. 8). […] The spontaneous second order reaction rate constant of superoxide with compound B was calculated from the initial slope to be 8.1*10^2 M^-1 S^-1.

A further series deals with BSA. Nature of the series: BSA's cystine oxidation by NaOCl (DTNB). The following applies: NaOCl 1 mM. The method, then:
BSA (0.5 mg/ml) in Imi HEPES buffer pH=7.2(50 mM) was incubated with sodium hypochlorite (1 mM) for 15 min. The protein was dialyzed for 2 h against 2×500 vol of HEPES buffer to remove free sodium hypochlorite. 301 DTNB 0.015 M in water was then added to the protein solution and color was measured at 420 nm. AMTPs were added to the protein sample to protect it against sodium hypochlorite [Hazell and Stocker, ibid.].
BSA's tryptophan oxidation and BSA's cystine oxidation were the models for protein damage by NaOCl (FIG. 11 and FIG. 12 respectively). BSA fluorescence intensity decreased following oxidative stress of NaOCI (1 mM). […] Out of the three AMTP compounds the most lipophilic (A) was best in preventing the damage and provided 94% protection on the protein.

A further series concerns Human neutrophils (PMNs). The series is described as follows: Chemiluminescence of PMNs activated by cationized streptococci. Type of series: cell-based. The method, then: Human neutrophils (PMNs) were isolated from freshly drawn human blood according to already published procedures [Ginsburg et al., ibid.].
Chemiluminescence was measured in activated PMNs at 37° C. in a LUMAC/3M BIOCONTER M2010 connected to a linear recorder. PMNs (3*10^5 -2*10^6 /ml) were pipetted into plastic cuvettes, containing 1 ml HBSS, luminol (5*10^-5 M) and washed Streptococci 20 μl/ml (ten milliliters of a saline-washed suspension of group A Streptococci type 3 strain C203S of an optical density of 5.0 at 550 nm that was treated for 15 min at 37° C. with 100 μg/ml of poly L-histidine (PHSTD)HCL mol wt 23,000). The cationized suspension was then washed in normal saline and resuspended to the original volume. The cuvettes were mixed over a mechanical vortex and the chemiluminescence was immediately monitored until the peak CL was reached.
Modulation of chemiluminescence response was achieved by employing AMTP (compound B) molecules in various concentrations.
Two experiments were done. In the first experiment with 3-4*10^5 cells/ml, a concentration of less than 1 mM of compound B was required to quench 90% of light production. Control 1 in FIG. 13 represents neutrophils treated with streptococcus alone (14,000-17,000 light units at the peak), Spontaneous light production measurements were 1,400-2,000 light CPM. In the second experiment Control 2 represents 1.5*10^6 cells per 1 ml HBSS activation of the cells by cationized streptococcus produced between 50,000-63,000 light units at the peak. 8 mM of compound B reduced the light measurements to the base level of 3500 light units.

In another series the test system is Human skin fibroblasts. The series is described as follows: Chromium release from fibroblasts, killing by streptolysin S and glucose oxidase. It is filed as cell-based. On the procedure:
Human skin fibroblasts were kindly supplied by the Department for Human Genetics at Hadassa Hospital in Jerusalem. The cells were grown in D-MEM medium supplemented with glutamine, penicillin, and streptomycin and 10% fetal calf serum [Ginsburg, I. et al. (1992) Inflammation 16:519-538]. Radiolabeled cell monolayers were prepared by the addition of 10 μCi/ml of [^51 Cr]NaCrO4 (New England Nuclear) to […] of trypsinized cells grown in 75-ml tissue culture bottles. The cells were then dispensed into 24-well tissue culture plates (Nunc, Roskilde, Denmark) and grown to confluency in a CO2 incubator.
Hydrogen peroxide flux was generated by the addition of glucose oxidase (0.5 units/ml) to the tissue culture media. Streptolysin S (SLS) of Croup A Streptococci (17 hemolytic units/ml) was employed as a membrane damaging agent.
Culture monolayers were treated for 1 h with the agents listed above. The cultures were monitored periodically for changes in cell morphology. To assess cytotoxicity, the supernatant fluids were removed and centrifuged at 2000 rpm for 2 min. The solubilized radioactivity was then determined in a Contron gamma counter. The total radioactivity associated with untreated controls was solubilized by the addition of 1 ml of 1% Triton X-100. (AMTPs influence on SLS hemolytic activity and on glucose oxidase activity was also tested. No influences were observed).
Fibroblasts in culture were exposed to a synergistic killing mechanism (streptolysin S in combination with an oxidant glucose oxidase) in a D-MEM culture medium that contained 1 mg/ml of glucose (about 0.5-1 mM of H2 O2 was produced after 1 hour of incubation at 37° C.). This system caused about 60% chromium released within an hour. […] The positive controls were DMTU and catalase.

In the case of `CCOP(=S)(NCCO)OCC` [Compound B, 2-hydroxyamido diethyithionophosphate], the logP in series [1] (octanol/water, read-out: P (octanol/water) (converted)) was 0.508. Also, in series [1] (oil(mineral)/water), the “P (oil/water)” value is 0.25. Also, the “oxidation by sodium hypochlorite” value in series [2] is “complete oxidation of the sulfur group”. Besides, the “decomposition by H2O2” value in series [3] (5 mM compound, 100 mM H2O2) is recorded as “decomposed by H2 O2”. Further, in series [3] (1,4-dioxane/water mixtures, dielectric constants 72.63 and 9.58), the “reaction rate with hydrogen peroxide vs dielectric constant” value is “much faster in high dielectric constants”. The “reduction of cyt C by compound itself” value in series [4] is “did not reduce cyt C”. Moreover, in series [4] (calculated from the initial slope), the “second order reaction rate constant with superoxide” value was 8.1*10^2 M^-1 S^-1. For the same molecule, in the series with BSA, the “protection of BSA's cystines” value is “strong protection”. Also, the “light production at 8 mM” value with Human neutrophils (PMNs) (8 mM, 1.5*10^6 cells/ml, control 50,000-63,000) came to 3500 light units. For the same molecule, the IC90 with Human neutrophils (PMNs) (Homo sapiens, Neutrophil, 3-4*10^5 cells/ml, read-out: concentration required to quench 90% of light production) is under 1 mM. For the same molecule, the “reduction of light emission” value in the series on Human neutrophils (PMNs) (various concentrations) is recorded as “dose dependent reduction of light emission”. The “prevention of cell damage, comparative” value in the series on Human skin fibroblasts is given as “much more efficient than compound C”. Besides, the “toxic effects on the cell” value in the series with Human skin fibroblasts (concentrations of up to 20 mM, compound alone) is on record as “did not show any toxic effects”. For the same molecule, the “protection against cell killing” value with Human skin fibroblasts (concentrations up to 10 mM, 60 min) was 50-60%.
